Results reported in patent US20140364454A1, “METAL-CHELATING COMPOUNDS HAVING AT LEAST ONE POLYAMINO CHAIN” (UNIVERSITE DE RENNES I, priority 2011, published 2014).

System: Caco-2 cells
Experiment: Cell viability of proliferating Caco-2 cells (number of nuclei)
Assay type: cell-based, human
Details: Caco-2 J4, cytostatic constituent, no exogenous iron; read-out: Constituent 1 (1-10 μM) IC50
Description: (§1) The action of Quilamines on the cell viability was analyzed on enterocyte cells of the Caco-2 tumor cell line derived from human colon carcinoma and compared with the action of ICL670 in the presence or absence of exogenous iron, after activation (DFMO) or competitive inhibition by spermidine, of the PTS. The operating conditions used are identical to those used for CHO/CHO-MG and HepG2 cells.
The results for the measurement of the anti-proliferative effect of Quilamines, and of ICL670 on the proliferating cells (cytostatic constituent) when there is no exogenous iron have been listed in the table 4 below.

Structure (SMILES) | IC50 [µM]
NCCCNCCCNCCCNCc1ccc2cccc(O)c2n1 [HQ1-333] | 3
NCCCNCCCCNCCCNCc1ccc2cccc(O)c2n1 [HQ1-343] | 2
NCCCNCCCCNCCCCNCc1ccc2cccc(O)c2n1 [HQ1-443] | 1
NCCCCNCCCCNCCCCNCc1ccc2cccc(O)c2n1 [HQ1-444] | 2

Same assay, conditions: Caco-2 J4, cytotoxic constituent, no exogenous iron; read-out: Constituent 2 (10-100 μM) IC50

Structure (SMILES) | IC50 [µM]
NCCCNCCCNCCCNCc1ccc2cccc(O)c2n1 [HQ1-333] | 60
NCCCNCCCCNCCCNCc1ccc2cccc(O)c2n1 [HQ1-343] | 40
NCCCNCCCCNCCCCNCc1ccc2cccc(O)c2n1 [HQ1-443] | 35
NCCCCNCCCCNCCCCNCc1ccc2cccc(O)c2n1 [HQ1-444] | 75

Same assay, conditions: Caco-2 J4, no exogenous iron

Structure (SMILES) | Constituent 1 (1-10 μM) % cell [%] | Constituent 2 (10-100 μM) % cell [%]
NCCCNCCCNCCCNCc1ccc2cccc(O)c2n1 [HQ1-333] | 20 | 80
NCCCNCCCCNCCCNCc1ccc2cccc(O)c2n1 [HQ1-343] | 30 | 70
NCCCCNCCCCNCCCNCc1ccc2cccc(O)c2n1 [HQ1-344] | 22 | 78
NCCCNCCCCNCCCCNCc1ccc2cccc(O)c2n1 [HQ1-443] | 5 | 95
NCCCCNCCCCNCCCCNCc1ccc2cccc(O)c2n1 [HQ1-444] | 60 | 40

Same assay, conditions: Homo sapiens; Caco-2 J4, cytostatic constituent, no exogenous iron; read-out: Constituent 1 (1-10 μM) IC50

Structure (SMILES) | IC50 [µM]
NCCCCNCCCCNCCCNCc1ccc2cccc(O)c2n1 [HQ1-344] | 3

Same assay, conditions: Homo sapiens; Caco-2 J4, cytotoxic constituent, no exogenous iron; read-out: Constituent 2 (10-100 μM) IC50

Structure (SMILES) | IC50 [µM]
NCCCCNCCCCNCCCNCc1ccc2cccc(O)c2n1 [HQ1-344] | 75

System: not listed separately
Experiment: Calcein test: shift of iron(III) complexated with calcein
Assay type: physicochemical
Details: pH 7.4
Description: The Quilamines HQ1-34, HQ1-344, HQ1-343, HQ1-33, HQ1-333, HQ1-44, HQ1-43, HQ1-444, HQ1-443 according to the invention were synthesized and tested. For each Quilamine, its capacity to shift iron (III) complexated with calcein was tested. Calcein is a fluorescent molecule which has a pFe3+ value of 20.3 with pH 7.4 close to the value measured for ligands of low molecular weight present in human or animal cells and complexating the labile iron pool, such as citrate which has a pFe^3+ value of 19.3 with pH of 7.4 (LIP). The fluorescence of calcein is detected on a microplate, in a concentration of 0.1 micromole per liter, in solution in a HEPES buffer (4-(2-hydroxyethyl)-1-piperazine ethane sulfonic acid) with pH 7.4, in a Fusion (Packard) type a microplate fluorescence reader, under excitation at 450 nanometers and analysis of the fluorescence emission at 515 nanometers. The fluorescence of calcein is extinguished in the presence of iron(III) in the form of hydrochloride (chloride) with a concentration of 1 micromole per liter. The addition of Quilamine in different concentrations ranging from 0.01 to 40 micromoles per liter prompts the shifting of iron(III) complexated with calcein towards Quilamine, resulting in a restoration of the fluorescence of the calcein. The dose-effect curves expressing the percentage of restoration of fluorescence of calcein (relative to the fluorescence of the free molecule in the absence of iron), for each Quilamine concentration, makes it possible to deduce the Quilamine concentration prompting the 50% shift of Fe(III) from calcein and the restoration of its associated fluorescence (CE50). These concentration values CE50 are inversely proportional to the chelating capacity of the chelators and the aptitude to mobilize iron from the LIP of the organism.
Comparatively, measurements were made, under the same conditions, of the efficacy in shifting iron(III) complexated with calcein of the two prior-art chelators, 8-hydroxyquinoline and O-trensox, the latter being currently considered to be the chelator having the greatest affinity for iron.

Structure (SMILES) | chelating capacity of HQ1-3 type compared with HQ1-4 type Quilamines
NCCCNCCCNCCCNCc1ccc2cccc(O)c2n1 [HQ1-333] | better chelating capacity
NCCCNCCCCNCCCNCc1ccc2cccc(O)c2n1 [HQ1-343] | better chelating capacity
NCCCCNCCCCNCCCNCc1ccc2cccc(O)c2n1 [HQ1-344] | better chelating capacity

System: mutant cell line CHO-MG without PTS
Experiment: Anti-proliferative effect on CHO-MG cells without PTS, counting of cell nuclei
Assay type: cell-based, hamster
Details: 72 h treatment
Excerpt: The IC50 inhibitor concentration corresponding to the concentration in Quilamines enables the inhibition at 50% of the cell proliferation was deduced from the dose-effect curves of numeration of the nuclei of the living cells on the CHO and CHO-MG cell lines. These dose-effect curves are sometimes bi-phase curves as in the case of Quilamine HQ1-44 which has an anti-proliferative constituent (without concomitant release of LDH in supernatant) in the range of concentrations of 0.4 to 3 micromoles per liter and a second cytotoxic constituent accompanied by membrane toxicity expressed by the release of LDH for concentrations of over […]. The lower the value of IC50, the greater the efficiency of the anti-proliferative effect of the tested chelators.
Furthermore, the ratio of the IC50 inhibitor concentrations found for the CHO-MG and the CHO cell lines (Ratio IC50 (CHO-MG/CHO)) was computed for several Quilamines according to the invention. This ratio makes it possible to estimate the selectivity of recognition of the different chelators by the PTS: the higher the ratio, the more clearly is the chelator recognized by the PTS. When this ratio is close to 1, the tested chelator is not recognized or is little recognized by the PTS.

Structure (SMILES) | IC50 [µM]
NCCCNCCCNCCCNCc1ccc2cccc(O)c2n1 [HQ1-333] | 277
NCCCNCCCCNCCCCNCc1ccc2cccc(O)c2n1 [HQ1-443] | 258
NCCCCNCCCCNCCCCNCc1ccc2cccc(O)c2n1 [HQ1-444] | 240

Same assay, conditions: selectivity of recognition by the PTS

Structure (SMILES) | Ratio IC50 (CHO-MG/CHO)
NCCCNCCCNCCCNCc1ccc2cccc(O)c2n1 [HQ1-333] | 18
NCCCNCCCCNCCCCNCc1ccc2cccc(O)c2n1 [HQ1-443] | 13
NCCCCNCCCCNCCCCNCc1ccc2cccc(O)c2n1 [HQ1-444] | 38

System: HepG2 cells
Experiment: Anti-proliferative effect on HepG2 cells (nuclei count or SDH activity)
Assay type: cell-based, human
Details: HepG2, absence of exogenous iron, 72 h; read-out: IC50 associated with the cytostatic effect
Excerpt: The majority of the Quilamines, like ICL670, show biphase dose-effect curves in the absence of exogenous iron, with an anti-proliferative constituent for concentration values of 1 to 10 micromoles per liter and a cytotoxic constituent associated with a release of LDH for concentration values of over 10 micromoles per liter. The percentage of HepG2 cells concerned by the anti-proliferative effect and the values of IC50 associated with this cytostatic effect in the absence of exogenous iron were listed in the table 4 below.
The implication of PTS in the cytostatic and cytotoxic action of Quilamines was analyzed in proliferating HepG2 hepatocyte tumor cells after activation of PTS or competitive inhibition of PTS by spermidine, a polyamine naturally present in the organism and most efficaciously captured by the PTS. The conditions of treatment by Quilamines are identical to those described in paragraph III-1.
Inhibiting ornithine decarboxylase (ODC), the key enzyme in the biosynthesis of polyamines, causes a depletion of intra-cell polyamines and an activation of PTS which enables the deficiency to be met. This activation of PTS is done by means of the ODC inhibitor, alpha-difluoromethyl ornithine (DFMO).
The competitive inhibition of PTS by spermidine is prompted by the co-treatment of the cells by the Quilamines in the presence of spermidine, in a concentration of 50 micromoles per liter.

Structure (SMILES) | IC50 [µM]
NCCCNCCCNCCCNCc1ccc2cccc(O)c2n1 [HQ1-333] | 1
NCCCNCCCCNCCCNCc1ccc2cccc(O)c2n1 [HQ1-343] | 2.15
NCCCNCCCCNCCCCNCc1ccc2cccc(O)c2n1 [HQ1-443] | 2.25
NCCCCNCCCCNCCCCNCc1ccc2cccc(O)c2n1 [HQ1-444] | 4.75

Same assay, conditions: Homo sapiens; HepG2, absence of exogenous iron, 72 h; read-out: IC50 associated with the cytostatic effect

Structure (SMILES) | IC50 [µM]
NCCCCNCCCCNCCCNCc1ccc2cccc(O)c2n1 [HQ1-344] | 1.75

Same assay, conditions: absence of exogenous iron, 72 h

Structure (SMILES) | % of HepG2 cells concerned by the anti-proliferative effect [%]
NCCCNCCCNCCCNCc1ccc2cccc(O)c2n1 [HQ1-333] | 12.5
NCCCNCCCCNCCCNCc1ccc2cccc(O)c2n1 [HQ1-343] | 12.5
NCCCCNCCCCNCCCNCc1ccc2cccc(O)c2n1 [HQ1-344] | 10
NCCCNCCCCNCCCCNCc1ccc2cccc(O)c2n1 [HQ1-443] | 17.5
NCCCCNCCCCNCCCCNCc1ccc2cccc(O)c2n1 [HQ1-444] | 10

System: Caco-2 cells
Experiment: LDH release of Caco-2 cells
Assay type: cell-based, human
Details: Caco-2 J4, 10 μM
Description: as §1
As in the case of the other cell lines in proliferative phase presented here above, the dose-effect curves of the action of the Quilamines on the number of viable cells (number of nuclei) are biphase curves with a cytostatic constituent for concentration values of below 30 micromoles per liter and a cytotoxic constituent with release of LDH for concentration values above 30 micromoles per liter. Only this second cytotoxic constituent is observed when the cells of the Caco-2 cell line are treated after confluence (stopping of the proliferation).

Structure (SMILES) | % LDH/control 10 μM [%]
NCCCNCCCNCCCNCc1ccc2cccc(O)c2n1 [HQ1-333] | 112
NCCCNCCCCNCCCNCc1ccc2cccc(O)c2n1 [HQ1-343] | 89
NCCCCNCCCCNCCCNCc1ccc2cccc(O)c2n1 [HQ1-344] | 95
NCCCNCCCCNCCCCNCc1ccc2cccc(O)c2n1 [HQ1-443] | 88
NCCCCNCCCCNCCCCNCc1ccc2cccc(O)c2n1 [HQ1-444] | 99

Same assay, conditions: Caco-2 J4, 100 μM

Structure (SMILES) | % LDH/control 100 μM [%]
NCCCNCCCNCCCNCc1ccc2cccc(O)c2n1 [HQ1-333] | 169
NCCCNCCCCNCCCNCc1ccc2cccc(O)c2n1 [HQ1-343] | 255
NCCCCNCCCCNCCCNCc1ccc2cccc(O)c2n1 [HQ1-344] | 120
NCCCNCCCCNCCCCNCc1ccc2cccc(O)c2n1 [HQ1-443] | 189
NCCCCNCCCCNCCCCNCc1ccc2cccc(O)c2n1 [HQ1-444] | 118

System: wild cell line (CHO) of hamster ovarian cells
Experiment: Anti-proliferative effect on CHO cells, counting of cell nuclei (Hoechst 33342)
Assay type: cell-based
Details: 72 h treatment, no exogenous iron; read-out: IC50 CHO
Description: The in vitro efficacy of different Quilamines was tested on a wild cell line (CHO) of hamster ovarian cells having PTS and a mutant cell line CHO-MG without PTS. The two cell types CHO and CHO-MG were treated, 24 hours after being seeded in 96-well microplates, by concentrations of different Quilamines ranging from 0.1 to 400 micromoles per liter. The cytostatic (anti-proliferative) effects and cytotoxic effects of Quilamine after 72 hours' treatment of the cells were assessed respectively by counting cell nuclei after DNA marking by the Hoechst 33342 fluorescent intercalant dye and by analysis of membrane damage detected by the dosing of the lactate dehydrogenase activity (LHD) in the supernatants.
The IC50 inhibitor concentration corresponding to the concentration in Quilamines enables the inhibition at 50% of the cell proliferation was deduced from the dose-effect curves of numeration of the nuclei of the living cells on the CHO and CHO-MG cell lines. […] The lower the value of IC50, the greater the efficiency of the anti-proliferative effect of the tested chelators.
A comparison was made of the cytostatic or anti-proliferative action and the cytotoxic action for 72 h of treatment by Quilamine HQ1-44 and 8-hydroxyquinoline and ICL670, on the CHO cell lines in the presence and without the presence of exogenous iron, in the form of Fe(III) citrate in a concentration of 20 micromoles per liter. The results obtained are shown in FIG. 4, FIG. 4A relating to the results on cell viability and FIG. 4B relating to the results on cell toxicity.

Structure (SMILES) | IC50 [µM]
NCCCNCCCNCCCNCc1ccc2cccc(O)c2n1 [HQ1-333] | 15.1
NCCCNCCCCNCCCCNCc1ccc2cccc(O)c2n1 [HQ1-443] | 20.2
NCCCCNCCCCNCCCCNCc1ccc2cccc(O)c2n1 [HQ1-444] | 6.3
